Results as given in PMC12067741, “Inhibition of SOD1 trimerization is a novel drug target for ALS disease” (Translational Neurodegeneration, 2025).

Columns and labels:
[1] = system: WT-SOD1 (Azurite, mCherry2) and MT (G93A)-SOD1 (GFP); experiment: Co-inclusion of three colour variants of SOD1 in SK-N-SH cells; format: cell-based; details: PRG-A-04 5 μmol/L, 24 h
Protocol: Cells with SOD1 aggregation were counted in the fluorescent images. Depending on the intensity of SOD1, cells with SOD1 aggregates were counted in randomly selected fields and quantified as a percentage to the total cells counted. In addition, to calculate the colocalization of the three colors of SOD1, we counted the cells where the three colored images overlapped at a point of high intensity. Cell counting was performed by three independent observers, who were blinded to the transfection or chemical treatment group.
Fig. 2 PRG-A-04 suppresses SOD1 aggregation through targeting trimeric SOD1. a-b SOD1 trimer destabilizer inhibited MT-SOD1 aggregation. (a) SOD1 (GFP) expression was observed under fluorescence microscope (white arrows; strong intensity of SOD1). Scale bar, 10 μm. EV, empty vector. (b) SOD1 inclusion-positive cells (white arrows; strong intensity of SOD1) were counted and the percentages are shown as mean ± SD. c PRG-A-04 reduced SOD1 oligomerization induced by SOD1 trimer stabilizer (G147P). d-g PRG-A-04 directly bound to the mutant form of SOD1. […] (g) For quantitative analysis, the number of PRG-A-04 molecules per 100 SOD1 molecules was counted. […] (i) Cells with WT and MT-SOD1 co-inclusions were counted and the percentages are shown as mean ± SD. For cell counting, five fluorescence images were randomly selected. […]

SOD1-G147P = target: T1, SOD1-G147P (Homo sapiens, UniProt P00441, G148P); experiment: SOD1 oligomerization induced by trimer stabilizer overexpression; format: cell-based
T1 construct: expressed in transfected cells
T1 sequence (P00441 whole entry G148P): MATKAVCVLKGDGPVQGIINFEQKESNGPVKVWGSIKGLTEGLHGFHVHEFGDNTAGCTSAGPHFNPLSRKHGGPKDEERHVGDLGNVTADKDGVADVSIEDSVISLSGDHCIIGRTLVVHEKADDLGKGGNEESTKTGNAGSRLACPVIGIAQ
Protocol: For SDS-PAGE, proteins were extracted from cells with the RIPA buffer (50 mmol/L Tris–Cl, pH 7.5, 150 mmol/L NaCl, 1% NP-40, 0.1% SDS and […]). To detect the oligomer status, the cells were harvested with the TNNI buffer (50 mmol/L Tris–Cl, pH 7.5, 150 mmol/L NaCl, 0.3% NP-40, 100 mmol/L iodoacetamide, protease inhibitor cocktails) and reacted with 0.04% glutaraldehyde (Glu) for 30 min, and then SDS-PAGE was performed using the pan-SOD1 antibody. Samples were separated via SDS-PAGE and transferred to PVDF membrane. Blotted membranes were blocked by 3% skim milk containing TBST buffer for 1 h and incubated with specific antibodies. The following primary antibodies were used: pan-SOD1 (GTX100554) from Genetex (Irvine, CA); misfolded SOD1-specific antibody (B8H10) from MediMabs (Montreal, Canada); Actin (sc-1616), GST (sc-138), and GFP (Green fluorescent protein; sc-8036) antibodies from Santa Cruz Biotechnology (Santa Cruz, CA); TDP-43 antibody (10782–2-AP) from Proteintech (Rosemont, IL); anti-FLAG (Sigma; F3165) from Sigma-Aldrich (St. Louis, MO). HRP-conjugated goat anti-mouse, goat anti-rabbit and mouse anti-goat antibodies (Pierce, Thermo Fisher Scientific, Inc., Rockford, IL) were used as secondary antibodies. The blots were detected using an ECL assay (Advansta) and images were acquired using the […] ImageQuant 800 (Cytiva) system and an X-Ray film detector. […]

[2] = Metabolic stability in liver microsomes; format: in vitro ADME; details: human liver microsomes

## COc1cc(C=CCOC2Cc3cc4ccc(=O)oc4cc3OC2(C)C)ccc1[N+](=O)[O-] (stereo not drawn) [PRG-A-04]
[1]
  co-inclusion of WT and MT-SOD1: disappeared
SOD1-G147P
  effect on SOD1 oligomerization caused by trimer-stabilizing mutant: reduced the SOD1 oligomerization
[2]
  extent of metabolism in liver microsomes: moderately metabolized
